Data from US20230219963A1, “PYRROLO[2,3-D]PYRIMIDINE DERIVATIVES” (Pfizer Inc., priority 2020, published 2023).

How the values were obtained:
IL-27 induced pSTAT3 = assay: IL-27-induced pSTAT3 in human whole blood (lymphocytes); format: cell-based; conditions: Lymphocyte, JAK1/JAK2, read-out: IL-27 induced pSTAT3, cellular potency IC50
Experimental: (§1) Human whole blood was collected from healthy donors via vein puncture into Vacutainer collection tubes containing sodium heparin in accordance with Pfizer protocols (Protocol No. GOHW RDP-01) approved by the Shulman Institutional Review Board. Blood was warmed to 37° C. priorto use. Human whole blood was aliquoted (90 μL/well) in 96-well, deep-well, V-bottom plates and treated with compounds (5 μL/well) at different concentrations up to 60 μM (0.2% DMSO final) at 37° C. for 60 minutes. This was followed by a challenge with IFNα (5000 U/mL), IFNγ (100 ng/mL), IL-6 (50 ng/mL), IL-10 (30 ng/mL), IL-12 (30 ng/mL), IL-15 (30 ng/mL), IL-21 (50 ng/mL), IL-23 (25 ng/mL), IL-27 (1000 ng/mL), EPO (2 U/mL), TSLP (50 ng/mL) or PBS and incubated for 15 minutes. Anti-cell surface antibodies were added 15 minutes prior to cytokine stimulation; anti-CD3-BV421 (0.5 μL/well) to IL-6-treated and TSLP-treated samples and anti-CD14-BV421 (0.5 μL/well) to IFNγ-treated samples. Samples were treated with warm 1×Lyse/Fix buffer (700 μL/well) to terminate activation and further incubated at 37° C. for 20 minutes to lyse red blood cells. Plates were centrifuged at 300×g for 5 minutes, supernatant was aspirated, and cells were washed with 800 μL/well of staining buffer (D-PBS containing 0.1% FBS and 0.01% sodium azide). Washed cell pellets were resuspended in 350 μL/well of prechilled 90% methanol and incubated at 4° C. for 30 minutes. After the removal of 90% methanol, cells were washed once with staining buffer. All samples were finally suspended in 150 μL/well of the desired anti-phospho-STAT antibodies at 1:150 dilution in staining buffer; anti-pSTAT1-AF647 in IFNγ treated samples; anti-pSTAT1-AF488 and anti-pSTAT3-AF647 in IL-6-treated samples, anti-pSTAT3-AF647 in IFNα, IL-10, IL-21, IL-23 and IL-27 treated samples, anti-pSTAT4-AF647 in IL-12 treated samples, anti-pSTAT5-AF-647 in EPO, IL-15 and TSLP-treated samples. Human primary keratinocytes were cultured in DermaLife™ medium with supplement kit to expand cell population. Cell passages 2 to 5 were used in the assays. Cells were harvested at ˜80% confluence, suspended in warm DermaLife™ medium, aliquoted (90 μL/well) in 96-well, deep-well, V-bottom plates, and incubated at 37° C. for 30 minutes. Cells were then treated with compounds (0.0003 to 20 μM) for 60 minutes and followed by stimulation with IL-4 (2 ng/mL) or IL-13 (20 ng/mL) at 37° C. for 15 minutes. […]
(§2) After overnight incubation at 4° C., anti-pSTAT stained samples were transferred into 96-well polypropylene U-bottom plates and flow cytometric analysis was performed on a LSR Fortessa™ equipped with a HTS plate loader. […] Background fluorescence was defined using unstimulated cells and a gate was placed at the foot of the peak to include ˜0.5% gated population. […]

JAK1 = JAK1 (Homo sapiens, UniProt P23458); assay: JAK Caliper Enzyme Assay at 1 mM ATP (JAK1); format: biochemical
Experimental: (§3) JAK Caliper Enzyme Assay at 1 mM ATP
(§4) Test article was solubilized in dimethyl sulfoxide (DMSO) to a stock concentration of 30 mM. An 11-point half log dilution series was created in DMSO with a top concentration of 600 μM. […] The compound plates were diluted 1 to 60 resulting in a top final assay compound concentration of 10 μM and a 2% DMSO concentration. Test article and assay controls were added to a 384-well plate. Reaction mixtures contained 20 mM HEPES, pH 7.4, 10 mM magnesium chloride, 0.01% bovine serum albumin (BSA), 0.0005% Tween 20, 1 mM ATP and 1 μM peptide substrate. […] The assays were initiated by the addition of 20 nM JAK1, 1 nM JAK2, 1 nM JAK3 or 1 nM TYK2 enzyme and were incubated at room temperature for three hours for JAK1, 60 minutes for JAK2, 75 minutes for JAK3 or 135 minutes for TYK2. Enzyme concentrations and incubation times were optimized for each new enzyme preps and were modified slightly over time to ensure 20%-30% phosphorylation. The assays were stopped with a final concentration of 10 mM EDTA, 0.1% Coating Reagent and 100 mM HEPES, pH=7.4. The assay plates were placed on a Caliper Life Science Lab Chip 3000 (LC3000) instrument, and each well was sampled using appropriate separation conditions to measure the unphosphorylated and phosphorylated peptide.

IL-10 induced pSTAT3 = assay: IL-10-induced pSTAT3 in human whole blood (lymphocytes); format: cell-based; conditions: Lymphocyte, JAK1/TYK2, read-out: IL-10 induced pSTAT3, cellular potency IC50
Experimental: as §1, §2

IL-15 induced pSTAT5 = assay: IL-15-induced pSTAT5 in human whole blood (lymphocytes); format: cell-based; conditions: Lymphocyte, JAK1/JAK3, read-out: IL-15 induced pSTAT5, cellular potency IC50
Experimental: as §1, §2

IFNa induced pSTAT3 = assay: IFNα-induced pSTAT3 in human whole blood (lymphocytes); format: cell-based; conditions: Lymphocyte, JAK1/TYK2, read-out: IFNa induced pSTAT3, cellular potency IC50
Experimental: Human whole blood was collected from healthy donors via vein puncture into Vacutainer collection tubes containing sodium heparin in accordance with Pfizer protocols (Protocol No. GOHW RDP-01) approved by the Shulman Institutional Review Board. Blood was warmed to 37° C. priorto use. Human whole blood was aliquoted (90 μL/well) in 96-well, deep-well, V-bottom plates and treated with compounds (5 μL/well) at different concentrations up to 60 μM (0.2% DMSO final) at 37° C. for 60 minutes. This was followed by a challenge with IFNα (5000 U/mL), IFNγ (100 ng/mL), IL-6 (50 ng/mL), IL-10 (30 ng/mL), IL-12 (30 ng/mL), IL-15 (30 ng/mL), IL-21 (50 ng/mL), IL-23 (25 ng/mL), IL-27 (1000 ng/mL), EPO (2 U/mL), TSLP (50 ng/mL) or PBS and incubated for 15 minutes. Anti-cell surface antibodies were added 15 minutes prior to cytokine stimulation; anti-CD3-BV421 (0.5 μL/well) to IL-6-treated and TSLP-treated samples and anti-CD14-BV421 (0.5 μL/well) to IFNγ-treated samples. Samples were treated with warm 1×Lyse/Fix buffer (700 μL/well) to terminate activation and further incubated at 37° C. for 20 minutes to lyse red blood cells. Plates were centrifuged at 300×g for 5 minutes, supernatant was aspirated, and cells were washed with 800 μL/well of staining buffer (D-PBS containing 0.1% FBS and 0.01% sodium azide). Washed cell pellets were resuspended in 350 μL/well of prechilled 90% methanol and incubated at 4° C. for 30 minutes. After the removal of 90% methanol, cells were washed once with staining buffer. […]
as §2

IL-6 induced pSTATI = assay: IL-6-induced pSTAT1 in human whole blood (CD3+ cells); format: cell-based; conditions: JAK1/JAK2, read-out: IL-6 induced pSTATI, cellular potency IC50
Experimental: as §1, §2

JAK2 = JAK2 (Homo sapiens, UniProt O60674); assay: JAK Caliper Enzyme Assay at 1 mM ATP (JAK2); format: biochemical
Experimental: as §3, §4

IFNg induced pSTATI = assay: IFNγ-induced pSTAT1 in human whole blood (CD14+ cells); format: cell-based; conditions: JAK1/JAK2, read-out: IFNg induced pSTATI, cellular potency IC50
Experimental: as §1, §2

JAK2, sequence (O60674 whole entry): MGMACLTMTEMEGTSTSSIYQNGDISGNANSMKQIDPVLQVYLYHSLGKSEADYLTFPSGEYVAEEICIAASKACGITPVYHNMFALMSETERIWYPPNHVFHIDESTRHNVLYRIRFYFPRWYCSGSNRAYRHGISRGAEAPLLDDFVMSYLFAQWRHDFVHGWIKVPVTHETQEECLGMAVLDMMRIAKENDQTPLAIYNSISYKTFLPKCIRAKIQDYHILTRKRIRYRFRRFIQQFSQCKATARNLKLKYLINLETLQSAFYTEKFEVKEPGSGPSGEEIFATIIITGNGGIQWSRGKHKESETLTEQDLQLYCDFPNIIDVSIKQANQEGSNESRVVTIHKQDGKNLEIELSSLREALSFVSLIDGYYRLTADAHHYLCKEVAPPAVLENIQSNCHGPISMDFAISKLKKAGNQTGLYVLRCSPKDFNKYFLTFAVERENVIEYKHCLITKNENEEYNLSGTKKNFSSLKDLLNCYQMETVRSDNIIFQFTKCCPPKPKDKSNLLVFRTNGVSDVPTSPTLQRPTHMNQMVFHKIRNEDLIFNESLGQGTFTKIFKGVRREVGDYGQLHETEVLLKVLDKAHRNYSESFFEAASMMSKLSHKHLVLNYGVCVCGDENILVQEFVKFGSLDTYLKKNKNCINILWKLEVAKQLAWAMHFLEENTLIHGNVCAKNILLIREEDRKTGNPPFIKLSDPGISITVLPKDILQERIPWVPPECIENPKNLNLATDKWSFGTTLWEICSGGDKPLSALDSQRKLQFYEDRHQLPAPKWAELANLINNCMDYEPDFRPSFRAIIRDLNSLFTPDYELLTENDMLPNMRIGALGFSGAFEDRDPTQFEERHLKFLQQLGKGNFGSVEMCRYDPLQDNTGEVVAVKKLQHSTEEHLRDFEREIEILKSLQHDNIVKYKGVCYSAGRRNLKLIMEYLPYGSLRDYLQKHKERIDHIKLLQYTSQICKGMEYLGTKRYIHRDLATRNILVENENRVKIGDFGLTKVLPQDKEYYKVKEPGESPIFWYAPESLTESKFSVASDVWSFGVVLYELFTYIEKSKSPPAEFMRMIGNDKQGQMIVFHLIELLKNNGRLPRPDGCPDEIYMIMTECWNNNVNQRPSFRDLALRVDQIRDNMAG
JAK1, sequence (P23458 whole entry): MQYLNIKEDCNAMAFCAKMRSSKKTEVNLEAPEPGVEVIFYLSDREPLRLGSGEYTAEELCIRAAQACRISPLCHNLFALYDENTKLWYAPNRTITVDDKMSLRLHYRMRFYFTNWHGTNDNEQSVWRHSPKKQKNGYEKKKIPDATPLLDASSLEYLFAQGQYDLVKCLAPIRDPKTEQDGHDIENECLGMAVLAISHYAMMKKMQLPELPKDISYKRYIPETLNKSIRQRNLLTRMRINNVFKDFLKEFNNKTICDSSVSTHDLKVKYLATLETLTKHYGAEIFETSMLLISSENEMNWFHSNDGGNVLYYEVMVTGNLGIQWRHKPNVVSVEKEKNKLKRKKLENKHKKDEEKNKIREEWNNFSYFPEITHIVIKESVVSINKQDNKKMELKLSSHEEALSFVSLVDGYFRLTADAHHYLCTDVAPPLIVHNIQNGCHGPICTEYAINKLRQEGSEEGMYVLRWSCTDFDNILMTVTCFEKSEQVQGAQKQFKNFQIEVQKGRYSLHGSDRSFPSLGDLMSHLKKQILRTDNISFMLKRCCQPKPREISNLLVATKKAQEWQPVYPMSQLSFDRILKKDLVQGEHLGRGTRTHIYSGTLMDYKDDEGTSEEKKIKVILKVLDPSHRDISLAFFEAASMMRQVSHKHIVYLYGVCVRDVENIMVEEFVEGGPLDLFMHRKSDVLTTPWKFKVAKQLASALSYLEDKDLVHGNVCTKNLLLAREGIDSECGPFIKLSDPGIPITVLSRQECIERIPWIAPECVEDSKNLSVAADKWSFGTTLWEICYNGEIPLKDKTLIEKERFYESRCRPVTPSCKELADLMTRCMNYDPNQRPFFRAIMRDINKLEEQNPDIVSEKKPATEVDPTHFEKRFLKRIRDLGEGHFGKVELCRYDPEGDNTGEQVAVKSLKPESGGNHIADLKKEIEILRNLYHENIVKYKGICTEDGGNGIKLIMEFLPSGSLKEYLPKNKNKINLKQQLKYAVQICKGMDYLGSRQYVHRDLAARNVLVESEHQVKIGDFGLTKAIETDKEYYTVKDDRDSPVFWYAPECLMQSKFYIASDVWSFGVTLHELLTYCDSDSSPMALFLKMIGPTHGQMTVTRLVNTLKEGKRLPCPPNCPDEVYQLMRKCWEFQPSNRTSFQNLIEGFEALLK

| IC50 (IL-27 induced pSTAT3) | IC50 (JAK1) | IC50 (IL-10 induced pSTAT3) | IC50 (IL-15 induced pSTAT5) | IC50 (IFNa induced pSTAT3) | IC50 (IL-6 induced pSTATI) | IC50 (JAK2) | IC50 (IFNg induced pSTATI) | Compound |
| --- | --- | --- | --- | --- | --- | --- | --- | --- |
| 234 nM | 17.9 nM | 233 nM | 353 nM | 90.5 nM | 136 nM | 886 nM | 2160 nM | C[C@H](O)CS(=O)(=O)N[C@H]1C[C@@H](N(C)c2ncnc3[nH]ccc23)C1 (single isomer, unassigned) [IA (M2)] |
| 382 nM | 43.4 nM | 675 nM | 558 nM | 296 nM | 171 nM | 1140 nM | 1950 nM | CN(c1ncnc2[nH]ccc12)[C@H]1C[C@@H](NS(=O)(=O)CCCO)C1 [IB (M1), 3-Hydroxy-N-(cis-3-(methyl(7H-pyrrolo[2,3-d]pyrimidin-4-yl)amino)cyclobutyl)propane-1-sulfonamide] |
| 572 nM | 56.7 nM | 488 nM | 800 nM | 225 nM | 333 nM | 2280 nM | 4250 nM | C[C@@H](O)CS(=O)(=O)N[C@H]1C[C@@H](N(C)c2ncnc3[nH]ccc23)C1 (single isomer, unassigned) [IC (M3)] |
